Row | Compound | melting point [°C]
1 | COc1cc(Oc2ccc(S(C)(=O)=O)cc2)cc2cc(C3=NCC(CC(=O)O)S3)[nH]c12 (stereo not shown) [Example 102, (2-{7-Methoxy-5-[4-(methylsulfonyl)phenoxy]-1H-indol-2-yl}-4,5-dihydro-1,3-thiazol-5-yl)acetic acid] | 144 to 145
2 | CNC(=O)CC1CN=C(c2cc3cc(Oc4ccc(S(C)(=O)=O)cc4)cc(OC)c3[nH]2)S1 (stereo not shown) [Example 103, 2-(2-{7-Methoxy-5-[4-(methylsulfonyl)phenoxy]-1H-indol-2-yl}-4,5-dihydro-1,3-thiazol-5-yl)-N-methylacetamide] | 125 to 126
3 | COc1cc(Oc2ccc(S(C)(=O)=O)cc2)cc2cc(C3=NCC(CC(N)=O)S3)[nH]c12 (stereo not shown) [Example 104, 2-(2-{7-Methoxy-5-[4-(methylsulfonyl)phenoxy]-1H-indol-2-yl}-4,5-dihydro-1,3-thiazol-5-yl)acetamide] | 169 to 170

Results, then the compound that gave them:

Row | melting point [°C] | Compound
4 | 147 to 148 | CCOc1cc(Oc2ccc(S(C)(=O)=O)nc2)cc2cc(C3=NCC(CCO)S3)[nH]c12 (stereo not shown) [Example 95, 2-[2-(7-Ethoxy-5-{[6-(methylsulfonyl)pyridin-3-yl]oxy}-1H-indol-2-yl)-4,5-dihydro-1,3-thiazol-5-yl]ethanol]
5 | 208 to 210 | CCOc1cc(Oc2ccc(S(C)(=O)=O)nc2)cc2cc(C3=NCC(CC(=O)O)S3)[nH]c12 (stereo not shown) [Example 96, [2-(7-Ethoxy-5-{[6-(methylsulfonyl)pyridin-3-yl]oxy}-1H-indol-2-yl)-4,5-dihydro-1,3-thiazol-5-yl]acetic acid]
6 | 233 to 235 | CCOc1cc(Oc2ccc(S(C)(=O)=O)nc2)cc2cc(C3=NCC(CC(=O)NC)S3)[nH]c12 (stereo not shown) [Example 97, 2-[2-(7-Ethoxy-5-{[6-(methylsulfonyl)pyridin-3-yl]oxy}-1H-indol-2-yl)-4,5-dihydro-1,3-thiazol-5-yl]-N-methylacetamide]
7 | 195 to 196 | CCOc1cc(Oc2ccc(S(C)(=O)=O)nc2)cc2cc(C3=NCC(CC(N)=O)S3)[nH]c12 (stereo not shown) [Example 100, 2-[2-(7-Ethoxy-5-{[6-(methylsulfonyl)pyridin-3-yl]oxy}-1H-indol-2-yl)-4,5-dihydro-1,3-thiazol-5-yl]acetamide]

Source: patent US8673942B2, “Fused ring compounds and use thereof” (Takeda Pharmaceutical Company Limited, priority 2008, dated 2014)
